{
  "source": "ChEMBL document CHEMBL1129343",
  "about": "“Retinoic acid receptor beta,gamma-selective ligands: synthesis and biological activity of 6-substituted 2-naphthoic acid retinoids” (J Med Chem, 1996)",
  "key": {"[1]": {"molecular_target": "T1, Retinoic acid receptor beta (Homo sapiens, UniProt P10826)", "T1 sequence (P10826 whole entry)": "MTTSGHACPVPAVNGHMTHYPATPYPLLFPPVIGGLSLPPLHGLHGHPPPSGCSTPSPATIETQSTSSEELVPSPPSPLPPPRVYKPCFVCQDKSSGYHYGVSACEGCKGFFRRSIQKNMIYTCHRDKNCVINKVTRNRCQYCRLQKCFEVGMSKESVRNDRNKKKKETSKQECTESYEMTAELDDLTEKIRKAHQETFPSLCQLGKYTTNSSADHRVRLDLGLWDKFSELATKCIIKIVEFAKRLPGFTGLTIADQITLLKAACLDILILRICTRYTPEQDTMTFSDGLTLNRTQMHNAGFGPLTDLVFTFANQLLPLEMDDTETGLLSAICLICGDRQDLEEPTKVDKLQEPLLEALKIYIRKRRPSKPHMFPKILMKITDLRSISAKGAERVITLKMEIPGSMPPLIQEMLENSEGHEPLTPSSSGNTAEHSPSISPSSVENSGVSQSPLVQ", "experiment": "Apparent binding constant for Retinoic acid receptor beta in HeLa cellGAL-4 transactivation assay", "format": "cell-based"}, "[2]": {"molecular_target": "T2, Retinoic acid receptor alpha (Homo sapiens, UniProt P10276)", "T2 sequence (P10276 whole entry)": "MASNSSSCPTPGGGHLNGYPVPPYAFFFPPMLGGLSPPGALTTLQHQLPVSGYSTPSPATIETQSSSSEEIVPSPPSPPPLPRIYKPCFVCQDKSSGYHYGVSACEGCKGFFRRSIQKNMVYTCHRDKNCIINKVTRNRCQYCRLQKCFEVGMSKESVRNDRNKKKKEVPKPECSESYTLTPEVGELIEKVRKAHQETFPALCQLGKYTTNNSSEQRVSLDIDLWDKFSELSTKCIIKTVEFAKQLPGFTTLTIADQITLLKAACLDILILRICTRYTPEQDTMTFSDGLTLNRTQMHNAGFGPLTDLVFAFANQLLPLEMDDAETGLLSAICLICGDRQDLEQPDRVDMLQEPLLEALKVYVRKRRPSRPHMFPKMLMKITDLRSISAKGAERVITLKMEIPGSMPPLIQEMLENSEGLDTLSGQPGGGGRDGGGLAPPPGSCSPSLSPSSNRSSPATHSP", "experiment": "Apparent binding constant against Retinoic acid receptor alpha in HeLa cell GAl-4 transactivation assay", "format": "cell-based"}},
  "note": "pKd: −log10 of the molar value.",
  "data": [
    {"smiles": "CC1(C)CCC(C)(C)c2cc(/C(=N/NS(C)(=O)=O)c3ccc4cc(C(=O)O)ccc4c3)ccc21", "values": [
      {"measurement": "pKd", "setting": "[1]", "result": 5.89},
      {"measurement": "pKd", "setting": "[2]", "result": 4.96}
    ]}
  ]
}
